Assay results taken from patent publication US4224316A, “Synthetic peptides having pituitary growth hormone releasing activity” (Beckman Instruments, Inc., priority 1979, dated 1980).
Square brackets hold non-standard residues; d marks the D form. Peptide text beside a SMILES is read from it.

Test system: pituitaries removed from 20 day old female rats
Assay: In vitro growth hormone release study (incubated rat pituitaries, GH radioimmunoassay of the medium)
Format: cell-based
Settings: mean ± SEM, two pituitaries in 1 ml lactated Ringer's solution, 36° C., peptide added hourly for 2 hours
Experimental: Female rats of the CD-l strain were housed in a constant temperature room at 24° C. with 14 hours light and 10 hours darkness. The rats were fed Purina brand rat chow ab libitum.
All studies were started between 0800 and 1000 hours.
Pituitaries were removed from 20 day old female rats. Two pituitaries were incubated at 36° C. in 1 ml of lactated Ringer's solution in 10 ml polytetrafluoroethylene beakers in a Dubnoff Shaker (90 cycles/min.). The pituitaries were incubated a total of 4 hours (P1, P2, I3, and I4). After two successive one hour preincubation periods (P1, P2), the peptide was added to the incubation medium hourly for 2 hours (I3, I4).
This in vitro study was performed in triplicate and a standard radioimmunoassay of growth hormone present in the incubation medium was performed in duplicate. The hormonal activity was calculated as the difference (Δ) of growth hormone (GH) levels between I3, I4 and P2, i.e., (I3 -P2) and (I4 -P2). P values were calculated by Students' t test using six growth hormone values for each value recorded.
The growth hormone radioimmunoassay reagents were distributed by the National Institute of Arthritis and […] (NIAMDD) program. The growth hormone values were calculated in terms of nanograms (ng) of a rat standard with a growth hormone potency of 0.61 units/mg.

| SMILES | In vitro growth hormone release (ΔGH between I3, I4 and P2) (1μg peptide) | In vitro growth hormone release (ΔGH between I3, I4 and P2) (10μg peptide) | In vitro growth hormone release (ΔGH between I3, I4 and P2) (100μg peptide) |
| --- | --- | --- | --- |
| CSCC[C@H](NC(=O)[C@H](Cc1ccccc1)NC(=O)[C@@H](Cc1c[nH]c2ccccc12)NC(=O)[C@H](Cc1ccccc1)NC(=O)[C@H](N)Cc1ccccc1)C(N)=O [H2 N-D-Phe-Phe-D-Trp-Phe-Met-CONH2] (H-[dF]F[dW]FM-NH2) | 130 ± 143 ng.increment.GH/ml incubation | 955 ± 248 ng.increment.GH/ml incubation | 1060 ± 469 ng.increment.GH/ml incubation |
| NCCCC[C@H](NC(=O)[C@H](Cc1ccccc1)NC(=O)[C@@H](Cc1ccccc1)NC(=O)[C@H](Cc1c[nH]c2ccccc12)NC(=O)[C@H](N)Cc1ccccc1)C(N)=O [H2 N-D-Phe-Trp-D-Phe-Phe-Lys-CONH2] (H-[dF]W[dF]FK-NH2) | -109 ± 101 ng.increment.GH/ml incubation | 888 ± 120 ng.increment.GH/ml incubation | 963 ± 96 ng.increment.GH/ml incubation |
| CSCC[C@H](NC(=O)[C@H](Cc1ccccc1)NC(=O)[C@@H](Cc1ccccc1)NC(=O)[C@H](Cc1c[nH]c2ccccc12)NC(=O)[C@H](N)Cc1ccccc1)C(N)=O [H2 N-D-Phe-Trp-D-Phe-Phe-Met-CONH2] (H-[dF]W[dF]FM-NH2) | – | 1469 ± 153 ng.increment.GH/ml incubation | 1483 ± 168 ng.increment.GH/ml incubation |
